The text below walks through data of patent publication US7741488B2, “Tetrahydropyridothiophenes as antiproliferative agents for the treatment of cancer” (4SC AG, priority 2005, dated 2010).

Where only a bound is given, the exact number is not on record here.

Assay [1] relates to RKO (RKOp27) human colon adenocarcinoma cells. The assay is described as follows: Alamar Blue cell viability assay, anti-proliferative/cytotoxic activity on proliferating (uninduced) RKO p27 cells. The assay is classed as cell-based. The following applies: RKOp27, 72 h, proliferating cells without inducer Ponasterone A. The method, then:
The anti-proliferative/cytotoxic activity of the compounds described herein, can be tested on subclones of RKO (RKOp27) human colon adenocarcinoma cells (Schmidt et al., Oncogene 19, 2423-2429; 2000) using the Alamar Blue cell viability assay (described in O'Brien et al. Eur J Biochem 267, 5421-5426, 2000). The compounds are dissolved as 20 mM solutions in dimethylsulfoxide (DMSO) and subsequently diluted in semi-logarithmic steps. DMSO dilutions are further diluted 1:100 into Dulbecco's modified Eagle's medium (DMEM) containing 10% fetal calf serum to a final concentration twice as much as the final concentration in the test. RKO subclones are seeded into 96 well flat bottom plates at a density of 4000 cells per well in a volume of 50 μl per well. 24 hours after seeding the 50 μl each of the compound dilutions in DMEM medium are added into each well of the 96 Well plate. Each compound dilution is tested as quadruplicates. Wells containing untreated control cells are filled with 50 μl DMEM medium containing 1% DMSO. The cells are then incubated with the substances for 72 hours at 37° C. in a humidified atmosphere containing 5% carbon dioxide. To determine the viability of the cells, 10 μl of an Alamar Blue solution (Biosource) are added and the fluorescence is measured at an extinction of 544 nm and an emission of 590 nm. For the calculation of the cell viability the emission value from untreated cells is set as 100% viability and the emission rates of treated cells are set in relation to the values of untreated cells. Viabilities are expressed as % values.
The corresponding IC50 values of the compounds for anti-proliferative/cytotoxic activity are determined from the concentration-effect curves.
Representative IC50 values for anti-proliferation/cytotoxicity determined in the mentioned assay follow from the following table A, in which the numbers of the compound correspond to the numbers of the examples.
(Resazurin is reduced to fluorescent resorufin, in cell work by metabolically active cells.)

Assay [2] has as its system RKOp27 colon adenocarcinoma cells arrested by expression of ectopic p27Kip1. The assay is described as follows: Alamar Blue cell viability assay on RKO p27 cells arrested by Ponasterone A induced p27Kip1 (cell cycle specific mode of action). The assay is classed as cell-based. The following applies: Homo sapiens, 72 hours, cells arrested by p27Kip1 induced with 10 μM Ponasterone A. The method, then: To determine the cell cycle specific mode of action, subclones of RKO colon adenocarcinoma cells (RKOp27 or RKOp21 as described by Schmidt et al. in Oncogene 19, 2423-2429; 2000) are seeded into 96 well flat bottom plates at a density of 16000 cells per well in a volume of 50 μl per well in DMEM growth medium with 10% FCS containing 10 μM Ponasterone A. 24 hours after seeding the 50 μl each of the compound dilutions in DMEM medium are added into each well of the 96 Well plate. Each compound dilution is tested as quadruplicates. Wells containing untreated control cells are filled with 50 μl DMEM medium containing 1% DMSO. The cells are then incubated with the substances for 72 hours at 37° C. in a humidified atmosphere containing 5% carbon dioxide. To determine the viability of the cells, 10 μl of an Alamar Blue solution (Biosource) are added and the fluorescence was measured at an extinction of 544 nm and an emission of 590 nm. For the calculation of the cell viability the emission value from untreated cells is set as 100% viability and the emission rates of treated cells are set in relation to the values of untreated cells. Viabilities are expressed as % values. Viability is compared of proliferating cells grown in the absence of the inducer Ponasterone A, versus viability of cells arrested by the expression of ectopic p27Kip1 induced by Ponasterone A.

One may read the IC50 as the concentration that inhibits the measured activity by half. Lower therefore signals higher potency. As to `CCOC(=O)N1CCc2c(sc(NC(=O)CC(C)c3ccccc3OC)c2C#N)C1` (racemic) [Example 49, 3-Cyano-2-[(RS)-3-(2-methoxy-phenyl)-butanoylamino]-4,7-dihydro-5H-thieno[2,3-c]pyridine-6-carboxylic acid ethyl ester], the IC50 in assay [1] was ≤ 300 nM; in assay [2], > 100000 nM.

Regarding `CCOC(=O)N1CCc2c(sc(NC(=O)CCc3ccc(OC)cc3)c2C#N)C1` [Example 1, 3-Cyano-2-[3-(4-methoxy-phenyl)-propanoylamino]-4,7-dihydro-5H-thieno[2,3-c]pyridine-6-carboxylic acid ethyl ester], the concentration for half-maximal inhibition (IC50) in assay [1] was ≤ 300 nM; in assay [2] it was > 100000 nM.

For `CCOC(=O)N1CCc2c(sc(NC(=O)CCc3cccc(OC)c3)c2C#N)C1` [Example 2, 3-Cyano-2-[3-(3-methoxy-phenyl)-propanoylamino]-4,7-dihydro-5H-thieno[2,3-c]pyridine-6-carboxylic acid ethyl ester], the IC50 in assay [1] is ≤ 300 nM; in assay [2], > 100000 nM.

As for `CCOC(=O)N1CCc2c(sc(NC(=O)CCc3ccccc3OC)c2C#N)C1` [Example 3, 3-Cyano-2-[3-(2-methoxy-phenyl)-propanoylamino]-4,7-dihydro-5H-thieno[2,3-c]pyridine-6-carboxylic acid ethyl ester], the IC50 is 300 to 2000 nM in assay [1] and > 100000 nM in assay [2].

Regarding `CCOC(=O)N1CCc2c(sc(NC(=O)CCc3cccc([N+](=O)[O-])c3)c2C#N)C1` [Example 4, 3-Cyano-2-[3-(3-nitro-phenyl)-propanoylamino]-4,7-dihydro-5H-thieno[2,3-c]pyridine-6-carboxylic acid ethyl ester], the values for the IC50 in assay [1] and in assay [2] were ≤ 300 nM and > 100000 nM, respectively.

In the case of `CCOC(=O)N1CCc2c(sc(NC(=O)CCc3ccc(OCC)cc3)c2C#N)C1` [Example 5, 3-Cyano-2-[3-(4-ethoxy-phenyl)-propanoylamino]-4,7-dihydro-5H-thieno[2,3-c]pyridine-6-carboxylic acid ethyl ester], the IC50 was ≤ 300 nM in assay [1] and > 100000 nM in assay [2].

In the case of `CCOC(=O)N1CCc2c(sc(NC(=O)CCc3cccc(OC)c3OC)c2C#N)C1` [Example 6, 3-Cyano-2-[3-(2,3-dimethoxy-phenyl)-propanoylamino]-4,7-dihydro-5H-thieno[2,3-c]pyridine-6-carboxylic acid ethyl ester], the results for the half-maximal inhibitory concentration (IC50) in assay [1] and in assay [2] were 300 to 2000 nM and > 100000 nM, respectively.

As to `CCOC(=O)N1CCc2c(sc(NC(=O)CCc3cc(OC)ccc3OC)c2C#N)C1` [Example 7, 3-Cyano-2-[3-(2,5-dimethoxy-phenyl)-propanoylamino]-4,7-dihydro-5H-thieno[2,3-c]pyridine-6-carboxylic acid ethyl ester], the concentration for half-maximal inhibition (IC50) was 300 to 2000 nM in assay [1] and > 100000 nM in assay [2].

As for `CCOC(=O)N1CCc2c(sc(NC(=O)CCc3cccc(OCC)c3)c2C#N)C1` [Example 8, 3-Cyano-2-[3-(3-ethoxy-phenyl)-propanoylamino]-4,7-dihydro-5H-thieno[2,3-c]pyridine-6-carboxylic acid ethyl ester], the half-inhibitory concentration (IC50) in assay [1] was 300 to 2000 nM; in assay [2], > 100000 nM.

Regarding `CCOc1ccccc1CCC(=O)Nc1sc2c(c1C#N)CCN(C(=O)OC(C)(C)C)C2` [Example 9, 3-Cyano-2-[3-(2-ethoxy-phenyl)-propanoylamino]-4,7-dihydro-5H-thieno[2,3-c]pyridine-6-carboxylic acid tert-butyl ester], the figures for the 50% inhibitory concentration (IC50) in assay [1] and in assay [2] were ≤ 300 nM and > 100000 nM, respectively.

`COc1ccccc1CCC(=O)Nc1sc2c(c1C#N)CCN(C(=O)OC(C)(C)C)C2` [Example 10, 3-Cyano-2-[3-(2-methoxy-phenyl)-propanoylamino]-4,7-dihydro-5H-thieno[2,3-c]pyridine-6-carboxylic acid tert-butyl ester]: the IC50 in assay [1] is ≤ 300 nM; in assay [2], > 100000 nM.

For the molecule `COc1cccc(CCC(=O)Nc2sc3c(c2C#N)CCN(C(=O)OC(C)(C)C)C3)c1` [Example 11, 3-Cyano-2-[3-(3-methoxy-phenyl)-propanoylamino]-4,7-dihydro-5H-thieno[2,3-c]pyridine-6-carboxylic acid tert-butyl ester], the concentration for half-maximal inhibition (IC50) was ≤ 300 nM in assay [1] and > 100000 nM in assay [2].

Regarding `CCOC(=O)N1CCc2c(sc(NC(=O)CCc3ccccc3OC(F)F)c2C#N)C1` [Example 12, 3-Cyano-2-{3-[2-(1,1-difluoro-methoxy)-phenyl]-propanoylamino}-4,7-dihydro-5H-thieno[2,3-c]pyridine-6-carboxylic acid ethyl ester], the IC50 in assay [1] is ≤ 300 nM; in assay [2] it was > 100000 nM.

As to `CCOC(=O)N1CCc2c(sc(NC(=O)CCc3cc(Br)cc(OC)c3OC)c2C#N)C1` [Example 14, 2-[3-(5-Bromo-2,3-dimethoxy-phenyl)-propanoylamino]-3-cyano-4,7-dihydro-5H-thieno[2,3-c]pyridine-6-carboxylic acid ethyl ester], the figures for the concentration for half-maximal inhibition (IC50) in assay [1] and in assay [2] were ≤ 300 nM and > 100000 nM, respectively.

Take `CCOC(=O)N1CCc2c(sc(NC(=O)CCc3cc(Br)ccc3OC)c2C#N)C1` [Example 15, 2-[3-(5-Bromo-2-methoxy-phenyl)-propanoylamino]-3-cyano-4,7-dihydro-5H-thieno[2,3-c]pyridine-6-carboxylic acid ethyl ester]: the concentration for half-maximal inhibition (IC50) in assay [1] was ≤ 300 nM; in assay [2] it was > 100000 nM.

As for `CCOC(=O)N1CCc2c(sc(NC(=O)CCc3cccc(OCC)c3OCC)c2C#N)C1` [Example 16, 3-Cyano-2-[3-(2,3-diethoxy-phenyl)-propanoylamino]-4,7-dihydro-5H-thieno[2,3-c]pyridine-6-carboxylic acid ethyl ester], the IC50 was 300 to 2000 nM in assay [1] and > 100000 nM in assay [2].

Consider `CCOC(=O)N1CCc2c(sc(NC(=O)CCc3cc(C)ccc3OC)c2C#N)C1` [Example 17, 3-Cyano-2-[3-(2-methoxy-5-methyl-phenyl)-propanoylamino]-4,7-dihydro-5H-thieno[2,3-c]pyridine-6-carboxylic acid ethyl ester], for which the IC50 was ≤ 300 nM in assay [1] and > 100000 nM in assay [2].

For `CCOC(=O)N1CCc2c(sc(NC(=O)CCc3c(OC)ccc4c3OC(F)(F)C(F)(F)O4)c2C#N)C1` [Example 18, 3-Cyano-2-[3-(2,2,3,3-tetrafluoro-6-methoxy-2,3-dihydro-benzo[1,4]dioxin-5-yl)-propanoylamino]-4,7-dihydro-5H-thieno[2,3-c]pyridine-6-carboxylic acid ethyl ester], the figures for the IC50 in assay [1] and in assay [2] were 300 to 2000 nM and > 100000 nM, respectively.

Regarding `CCOC(=O)N1CCc2c(sc(NC(=O)CCc3ccccc3OCC)c2C#N)C1` [Example 19, 3-Cyano-2-[3-(2-ethoxyphenyl)-propanoylamino]-4,7-dihydro-5H-thieno[2,3-c]-pyridine-6-carboxylic acid ethyl ester], the figures for the IC50 in assay [1] and in assay [2] were ≤ 300 nM and > 100000 nM, respectively.

For `CCOc1ccccc1CCC(=O)Nc1sc2c(c1C#N)CCN(C(=O)OCC1COC(C)(C)O1)C2` (centres unmarked) [Example 20, 3-Cyano-2-[3-(2-ethoxy-phenyl)-propanoylamino]-4,7-dihydro-5H-thieno[2,3-c]pyridine-6-carboxylic acid 2,2-dimethyl-[1,3]dioxolan-4-ylmethyl ester], the IC50 in assay [1] was ≤ 300 nM; in assay [2], > 100000 nM.

As for `CCOc1ccccc1CCC(=O)Nc1sc2c(c1C#N)CCN(C(=O)OCCOCc1ccccc1)C2` [Example 21, 3-Cyano-2-[3-(2-ethoxy-phenyl)-propanoylamino]-4,7-dihydro-5H-thieno[2,3-c]pyridine-6-carboxylic acid 2-benzyloxy-ethyl ester], the 50% inhibitory concentration (IC50) in assay [1] was 300 to 2000 nM; in assay [2], > 100000 nM.

`COc1ccccc1CCC(=O)Nc1sc2c(c1C#N)CCN(C(=O)OCCOCc1ccccc1)C2` [Example 24, 3-Cyano-2-[3-(2-methoxy-phenyl)-propanoylamino]-4,7-dihydro-5H-thieno[2,3-c]pyridine-6-carboxylic acid 2-benzyloxy-ethyl ester]: the IC50 in assay [1] is 300 to 2000 nM; in assay [2], > 100000 nM.
